According to patent US8815857B2 (Boehringer Ingelheim International GmbH, priority 2011, dated 2014):
≈ marks a conversion by molar mass, not a printed value.

Tests used:
[1] = Assessment of solubility: HT solubility in pION buffer, UV spectrophotometry; conditions: 16-19 h incubation, 1.0% DMSO; for solubility: pION system solution buffer, kinetic from dmso stock
[2] = target: T1, Recombinant human soluble guanylate cyclase (sGC), alpha 1 / beta 1 subunits, heme-free (Homo sapiens, UniProt Q02108+Q02153); experiment: Molecular assay: cGMP formation by heme-free recombinant sGC (CisBio cGMP detection kit); assay type: biochemical; conditions: 300 pM heme-free sGC, 37° C., 60 min, cGMP readout; read-out: EC50 nM, Activity of Compounds in Molecular Assay
T1 construct: histidine tag (C); made in house; host or cells: Sf9 insect cells (baculovirus coinfection)
T1 sequence (Q02108 1-690 partner): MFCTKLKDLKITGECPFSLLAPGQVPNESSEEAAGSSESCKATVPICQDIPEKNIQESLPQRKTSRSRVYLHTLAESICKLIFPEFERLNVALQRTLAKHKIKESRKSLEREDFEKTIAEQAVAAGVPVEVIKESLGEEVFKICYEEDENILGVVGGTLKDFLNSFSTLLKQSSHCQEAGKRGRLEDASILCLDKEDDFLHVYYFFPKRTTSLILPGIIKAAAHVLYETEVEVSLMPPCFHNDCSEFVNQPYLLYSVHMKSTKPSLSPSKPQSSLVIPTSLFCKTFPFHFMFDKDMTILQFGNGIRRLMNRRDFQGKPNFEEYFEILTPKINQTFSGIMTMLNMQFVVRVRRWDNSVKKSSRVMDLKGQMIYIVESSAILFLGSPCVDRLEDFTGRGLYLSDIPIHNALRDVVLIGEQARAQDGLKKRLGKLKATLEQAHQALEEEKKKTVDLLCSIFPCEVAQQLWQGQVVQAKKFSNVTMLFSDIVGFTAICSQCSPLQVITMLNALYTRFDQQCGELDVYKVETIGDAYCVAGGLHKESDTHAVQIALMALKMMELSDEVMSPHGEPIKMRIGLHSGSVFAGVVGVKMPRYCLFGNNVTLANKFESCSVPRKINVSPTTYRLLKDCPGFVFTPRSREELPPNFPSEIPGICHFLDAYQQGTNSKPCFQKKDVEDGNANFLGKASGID
T1 sequence (Q02153 1-619): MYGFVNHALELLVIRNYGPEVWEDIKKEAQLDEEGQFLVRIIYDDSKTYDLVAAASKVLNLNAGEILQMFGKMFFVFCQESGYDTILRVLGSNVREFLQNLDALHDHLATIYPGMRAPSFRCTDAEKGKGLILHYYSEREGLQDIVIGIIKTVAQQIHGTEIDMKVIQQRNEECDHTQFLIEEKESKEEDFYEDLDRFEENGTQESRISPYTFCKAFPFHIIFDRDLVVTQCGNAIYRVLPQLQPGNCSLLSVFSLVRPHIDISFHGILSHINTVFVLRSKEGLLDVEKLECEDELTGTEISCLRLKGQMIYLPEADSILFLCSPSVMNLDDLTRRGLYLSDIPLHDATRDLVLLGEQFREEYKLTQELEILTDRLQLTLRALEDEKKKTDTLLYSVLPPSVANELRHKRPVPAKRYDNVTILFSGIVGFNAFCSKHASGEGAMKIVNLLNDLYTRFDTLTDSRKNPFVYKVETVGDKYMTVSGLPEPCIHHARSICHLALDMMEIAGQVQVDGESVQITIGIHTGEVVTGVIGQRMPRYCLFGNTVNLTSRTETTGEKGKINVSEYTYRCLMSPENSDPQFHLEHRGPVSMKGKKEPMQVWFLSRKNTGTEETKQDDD
How it was run: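 Heme-free His-tagged sGC (Sf9-expressed, Tween 20-treated lysate) at 300 pM incubated with compounds (1% DMSO) for 60 min at 37° C in MOPS pH 6.8 with 50 nM GTP, IBMX, TCEP. cGMP quantified by HTRF against calibration curve; EC50 from combined undiluted/diluted values.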

[3] = pH 4.5, pH 4.5, aqueous buffer, Solubility (pH 4.5), pH 4.5 buffer
[4] = pH 7.4, pH 7.4, aqueous buffer, Solubility (pH 7.4), pH 7.4 buffer

SMILES | solubility [1, 3] [µg/mL] | solubility [1, 4] [µg/mL] | EC50 [2] [nM] | Solubility (pH 4.5) ([1]; pH 4.5 buffer) [μg/mL]
CNC(=O)C1CCN(Cc2ccc(COc3c(C)cccc3-c3csc(N4CCC(C(=O)O)CC4)n3)c(C)c2)CC1 [Compound 115] | > 57 | > 57 | 2700 | –
Cc1cc(C(=O)N2CCCCC2)ccc1COc1ccc(Cl)cc1-c1csc(N2C3CCC2CC(C(=O)O)C3)n1 (stereo not drawn) [Compound 117] | 0.25 (≈ 0.431 µM) | > 57 | 30 | –
Cc1cc(C(=O)N2CCCCC2)ccc1COc1ccc(Cl)cc1-c1csc(N2CC3CCC(C2)C3C(=O)O)n1 (stereo not drawn) [Compound 118] | 0.3 (≈ 0.517 µM) | 21 (≈ 36.2 µM) | 85 | –
Cc1ccc(OCc2ccc(CN3CCS(=O)(=O)CC3)cc2C#N)c(-c2csc(N3CCC(C(=O)O)CC3)n2)c1 [Compound 119] | 1.6 (≈ 2.76 µM) | > 69 | 39 | –
Cc1cc(CN2CCS(=O)(=O)CC2)ccc1COc1ccccc1-c1csc(N2CC3CCC(C2)C3C(=O)O)n1 (stereo not drawn) [Compound 121] | 3.3 (≈ 5.67 µM) | > 58 | 280 | –
Cc1ccc(OCc2ccc(C(=O)N3CCS(=O)(=O)CC3)cc2C)c(-c2csc(N3CCC(C(=O)O)CC3)n2)c1 [Compound 122] | 4.3 (≈ 7.37 µM) | > 58 | 81 | –
Cc1cc(CN(C)C2CCS(=O)(=O)C2)ccc1COc1c(C)cccc1-c1csc(N2CCC(C(=O)O)CC2)n1 (stereo not drawn) [Compound 123] | 31 (≈ 53.1 µM) | > 58 | 17 | –
Cc1ccc(OCc2ccc(C(=O)N(C)CC3CCCCC3)cc2C#N)c(-c2csc(N3CCC(C(=O)O)CC3)n2)c1 [Compound 125] | – | 14 (≈ 23.9 µM) | 74 | 0.1
Cc1cc(C(=O)N2CCCCC2)ccc1COc1c(-c2csc(N3CCC(C(=O)O)CC3)n2)cccc1C(F)(F)F [Compound 126] | 0.15 (≈ 0.255 µM) | > 58 | 46 | –
Cc1cc(C(=O)N2CCCCC2)ccc1COc1ccccc1-c1csc(N2CCC(C(=O)O)C(C(F)(F)F)C2)n1 (stereo not drawn) [Compound 127] | 0.2 (≈ 0.34 µM) | > 58 | 400 | –
Cc1cc(CN2CCS(=O)(=O)CC2)ccc1COc1ccc(F)cc1-c1csc(N2CCC(C(=O)O)C(C)C2)n1 (stereo not drawn) [Compound 129] | 0.15 (≈ 0.255 µM) | > 58 | 89 | –
Cc1cc(C(=O)N2CCCCC2)ccc1COc1ccccc1-c1csc(N2CCC(C(=O)O)CC2C(F)(F)F)n1 (stereo not drawn) [Compound 130] | 0.3 (≈ 0.51 µM) | > 58 | 30 | –
Cc1cc(CN2CCS(=O)(=O)CC2)ccc1COc1ccc(F)cc1-c1csc(N2CCC(C(=O)O)CC2C)n1 (stereo not drawn) [Compound 131] | 0.15 (≈ 0.255 µM) | > 58 | 88 | –
Cc1ccc(OCc2ccc(CN3CCOCC3)cc2C)c(-c2csc(N3CCC(C(=O)O)CC3C(F)(F)F)n2)c1 (stereo not drawn) [Compound 132] | 15 (≈ 25.4 µM) | > 58 | 160 | –
Cc1cc(CN2CCS(=O)(=O)CC2)ccc1COc1ccc(Cl)cc1-c1csc(N2CCC(C(=O)O)CC2)n1 [Compound 133] | 0.2 (≈ 0.339 µM) | > 58 | 45 | –
Cc1cc(CN2CCC(C(=O)N(C)C)CC2)ccc1COc1c(C)cccc1-c1csc(N2CCC(C(=O)O)CC2)n1 [Compound 134] | > 68 | > 68 | 1800 | –
Cc1cc(CN2CCS(=O)(=O)CC2)ccc1COc1ccc(C#N)cc1-c1csc(N2CCC(C(=O)O)C(C)C2)n1 (stereo not drawn) [Compound 135] | 0.45 (≈ 0.757 µM) | > 59 | 2700 | –
Cc1ccc(OCc2ccc(CN3CCS(=O)(=O)CC3)cc2C)c(-c2csc(N3CC4CCC(C3)C4C(=O)O)n2)c1 (stereo not drawn) [Compound 136] | 0.45 (≈ 0.755 µM) | > 59 | 6.1 | –
Cc1ccc(OCc2ccc(CN3CCS(=O)(=O)CC3)cc2C)c(-c2csc(N3C4CCC3CC(C(=O)O)C4)n2)c1 (stereo not drawn) [Compound 137] | 0.95 (≈ 1.59 µM) | > 59 | 64 | –
Cc1ccc(OCc2ccc(CN3CCC(S(C)(=O)=O)CC3)cc2C)c(-c2csc(N3CCC(C(=O)O)CC3)n2)c1 [Compound 138] | > 70 | > 70 | 180 | –
Cc1cc(CN2CCS(=O)(=O)CC2)ccc1COc1ccc(F)cc1-c1csc(N2C3CCC2CC(C(=O)O)C3)n1 (stereo not drawn) [Compound 139] | 0.6 (≈ 1 µM) | > 59 | 380 | –
N#Cc1cc(CN2CCS(=O)(=O)CC2)ccc1COc1c(Cl)cccc1-c1csc(N2CCC(C(=O)O)CC2)n1 [Compound 140] | 1.8 (≈ 2.99 µM) | > 60 | 79 | –
Cc1ccc(OCc2ccc(C(=O)N3CCCCC3)cc2C)c(-c2csc(N3CCC(C(=O)O)CC3C(F)(F)F)n2)c1 (stereo not drawn) [Compound 141] | 0.2 (≈ 0.332 µM) | > 60 | 3.9 | –
Cc1ccc(OCc2ccc(C(=O)N3CCCCC3)cc2C)c(-c2csc(N3CCC(C(=O)O)C(C(F)(F)F)C3)n2)c1 (stereo not drawn) [Compound 142] | 2 (≈ 3.32 µM) | > 60 | 160 | –
Cc1cc(CN2CCS(=O)(=O)CC2)ccc1COc1ccc(Cl)cc1-c1csc(N2CCC(C(=O)O)CC2C)n1 (stereo not drawn) [Compound 143] | 0.2 (≈ 0.331 µM) | 36 (≈ 59.6 µM) | 38 | –
Cc1cc(C(=O)N2CCCCC2)ccc1COc1ccc(F)cc1-c1csc(N2CCC(C(=O)O)C(C(F)(F)F)C2)n1 (stereo not drawn) [Compound 145] | 0.25 (≈ 0.413 µM) | > 60 | 650 | –
Cc1cc(CN2CCS(=O)(=O)CC2)ccc1COc1ccc(C#N)cc1-c1csc(N2CC3CCC(C2)C3C(=O)O)n1 (stereo not drawn) [Compound 146] | 0.75 (≈ 1.24 µM) | > 60 | 2000 | –
Cc1cc(CN2CCS(=O)(=O)CC2)ccc1COc1ccc(C#N)cc1-c1csc(N2C3CCC2CC(C(=O)O)C3)n1 (stereo not drawn) [Compound 147] | 1 (≈ 1.65 µM) | > 60 | 1200 | –
Cc1cc(C(=O)N2CCCCC2)ccc1COc1ccc(C#N)cc1-c1csc(N2CCC(C(=O)O)C(C(F)(F)F)C2)n1 (stereo not drawn) [Compound 148] | 0.3 (≈ 0.49 µM) | > 61 | 4100 | –
Cc1cc(C(=O)N2CCCCC2)ccc1COc1ccc(Cl)cc1-c1csc(N2CCC(C(=O)O)C(C(F)(F)F)C2)n1 (stereo not drawn) [Compound 149] | – | > 62 | 380 | 0.1
